{
  "source": "patent US20100273714A1",
  "about": "“PEPTIDE COMPOUNDS FOR TREATING REFRACTORY STATUS EPILEPTICUS” (SCHWARZ PHARMA AG, priority 2006, published 2010)",
  "key": {"[1]": {"system": "status epilepticus in the rat lithium/pilocarpine model", "assay": "Lithium/pilocarpine model of status epilepticus", "type": "in vivo, Rats"}, "[2]": {"system": "self-sustaining status epilepticus (SSSE) in perforant path stimulated rats", "settings": "Mazarati et al. 1999, cited from earlier work; for effectiveness against SSSE, delayed administration (in words): administration delayed / later in status epilepticus; for effectiveness against SSSE, early administration (in words): given before or at onset of SSSE / within the first 10 min of status epilepticus"}, "[3]": {"system": "self-sustaining status epilepticus (SSSE) in perforant path stimulated rats", "assay": "Perforant path stimulation model of self-sustaining status epilepticus (acute seizure activity)", "type": "in vivo, Male Wistar rats", "protocol": "Male Wistar rats were implanted with a stimulating electrode into the angular bundle of the perforant path and a recording electrode into the granule cell layer of the dentate gyrus. Perforant path stimulation (PPS) was delivered for 30 or 60 minutes with the following parameters: 10 s, 20 Hz trains of 1 ms, 30 V pulses delivered every minute together with continuous 2 Hz stimulation with the same parameters.\n(§1) The following indices were used to quantify seizure activity: cumulative seizure time (duration of SSSE, subtracting interictal time) and the number of seizure episodes. In addition the number of spontaneous seizures was measured 6 months following induction of SSSE in order to assess status epilepticus induced epileptogenesis."}, "[4]": {"system": "status epilepticus induced epileptogenesis (spontaneous recurrent seizures) in perforant path stimulated rats", "assay": "Long term (disease-modifying) effects: spontaneous recurrent seizures at least 6 months after SSSE induction, EEG/video monitoring", "type": "in vivo", "settings": "for spike frequency: early treatment, controls 9534±1114; for number of spontaneous recurrent seizures (SRSs) per week: treatment 10 min after perforant path stimulation, vehicle 110±8; for number of seizures per week: not statistically significant", "protocol": "as §1\nSSSE was induced in rats as described in Example 1. After SSSE induction, and at least 6 months wait (“silent period”) the animals were placed in EEG/telemetry/videotape continuously for two weeks for chronic EEG and video monitoring, but the second week, which was more remote from anaesthesia and surgery, was used to calculate seizure frequency (24 hours/day×7). Electrographic seizures were captured by the Harmony software, and were confirmed by offline manual review of the EEG and videotapes. The following indices were counted: total number of spikes of seizures for 7 days of observation, mean seizure duration, light/dark distribution."}, "[5]": {"settings": "50 mg/kg i.p., treatment initiated 40 minutes after PPS, FIG. 1"}, "[6]": {"settings": "50 mg/kg, administered 40 min after onset of SSSE"}, "[7]": {"settings": "given 10 min after perforant path stimulation, doses 10 mg/kg and above"}},
  "data": [
    {"smiles": "CN1C(=O)CN=C(c2ccccc2)c2cc(Cl)ccc21", "note": "[diazepam]", "values": [
      {"measurement": "efficacy of diazepam alone (in words)", "setting": "[1]; administered 15 min after onset of status epilepticus", "value": "ineffective"},
      {"measurement": "effectiveness against SSSE, delayed administration (in words)", "setting": "[2]", "value": "lost their effectiveness"},
      {"measurement": "effectiveness against SSSE, early administration (in words)", "setting": "[2]", "value": "highly effective"}
    ]},
    {"smiles": "COC[C@@H](NC(C)=O)C(=O)NCc1ccccc1", "note": "[lacosamide, (R)-2-acetamido-N-benzyl-3-methoxypropionamide]", "values": [
      {"measurement": "cumulative seizure duration (in words)", "setting": "[3]; [5]", "value": "substantial reduction"},
      {"measurement": "seizure frequency (in words)", "setting": "[3]; [5]", "value": "substantial reduction"},
      {"measurement": "reduction in cumulative seizure duration", "setting": "[3]; [6]", "value": 40, "unit": "%"},
      {"measurement": "reduction in seizure frequency", "setting": "[3]; [6]", "value": 40, "unit": "%"},
      {"measurement": "anticonvulsant effect (in words)", "setting": "[3]; given 10 min after perforant path stimulation", "value": "effective as an anticonvulsant"},
      {"measurement": "cumulative time spent seizing after treatment (in words)", "setting": "[3]; [7]", "value": "reduced"},
      {"measurement": "number of seizures (in words)", "setting": "[3]; [7]", "value": "reduced the number of seizures"},
      {"measurement": "number of seizures (in words)", "setting": "[3]; late treatment, 40 min after perforant path stimulation", "value": "non-significant reduction"},
      {"measurement": "motor seizure symptoms (in words)", "setting": "[1]; 50 mg/kg, 10 minutes after onset of status epilepticus", "value": "reduced motor seizure symptoms"},
      {"measurement": "spike frequency", "setting": "[4]; 3 mg/kg group", "value": "7557±1945", "unit": "spikes/week"},
      {"measurement": "number of spontaneous recurrent seizures (SRSs) per week", "setting": "[4]; 3 mg/kg", "value": "85±5", "unit": "SRS/week"},
      {"measurement": "number of spontaneous recurrent seizures (SRSs) per week", "setting": "[4]; 10 mg/kg", "value": "66±8", "unit": "SRS/week"},
      {"measurement": "number of seizures per week", "setting": "[4]; 10 mg/kg, treatment 40 min after perforant path stimulation, control 110±8", "value": "100±7", "unit": "seizures per week"},
      {"measurement": "spike frequency", "setting": "[4]; 30 mg/kg group", "value": "2969±542", "unit": "spikes/week"},
      {"measurement": "median number of seizures", "setting": "[4]; 30 mg/kg group, treatment 40 min after perforant path stimulation", "value": 0},
      {"measurement": "number of spontaneous recurrent seizures (SRSs) per week", "setting": "[4]; 30 mg/kg", "value": "42±8", "unit": "SRS/week"},
      {"measurement": "number of seizures per week", "setting": "[4]; 30 mg/kg, treatment 40 min after perforant path stimulation, control 110±8", "value": "67±67", "unit": "seizures per week"},
      {"measurement": "spike frequency", "setting": "[4]; 50 mg/kg group", "value": "2588±370", "unit": "spikes/week"},
      {"measurement": "median number of seizures", "setting": "[4]; 50 mg/kg group, treatment 40 min after perforant path stimulation", "value": 0},
      {"measurement": "number of spontaneous recurrent seizures (SRSs) per week", "setting": "[4]; 50 mg/kg", "value": "34±6", "unit": "SRS/week"},
      {"measurement": "number of seizures per week", "setting": "[4]; 50 mg/kg, treatment 40 min after perforant path stimulation, control 110±8", "value": "45±29", "unit": "seizures per week"},
      {"measurement": "percentage of rats developing chronic epilepsy / spontaneous recurrent seizures", "setting": "[4]; 30-50 mg/kg, 6 months after induction of SSSE, vehicle 100%", "value": 30, "unit": "%"},
      {"measurement": "reduction of number of seizures per week (seizure frequency)", "setting": "[4]; 30-50 mg/kg, after six months, vehicle average 110 seizures per week", "value": 60, "unit": "%"},
      {"measurement": "spike frequency", "setting": "[4]; \"mg/kg\" group (dose not given)", "value": "3536±380", "unit": "spikes/week"},
      {"measurement": "number of animals showing spontaneous recurrent seizures", "setting": "[4]; treatment 40 min after perforant path stimulation, two higher dosage groups combined, control 6/6, p<0.05", "value": "3/9"},
      {"measurement": "seizure numbers per week", "setting": "[4]; treatment 40 min after perforant path stimulation, two highest treatment groups combined, control 110±8", "value": "55±32", "unit": "seizures per week"}
    ]},
    {"smiles": "O=C1NC(=O)C(c2ccccc2)(c2ccccc2)N1", "note": "[phenytoin]", "values": [
      {"measurement": "effectiveness against SSSE, delayed administration (in words)", "setting": "[2]", "value": "lost their effectiveness"},
      {"measurement": "effectiveness against SSSE, early administration (in words)", "setting": "[2]", "value": "highly effective"}
    ]}
  ]
}
